# Laboratory results from US8140141B2, “Devices and methods for fluorescent inspection and/or removal of material in a sample” (University of Utah Research Foundation, priority 2006, dated 2012).
# Tests used:
# [1] = tested on: P-388 murine leukemia cells
# [2] = tested on: HCT-116 human colon tumor cells
# [3] = conventional blue dyes for sentinel lymph node procedures, after injection into tissue; cited from earlier work
Molecule,Cellular uptake [1],Cellular uptake [2],Passage out of lymphatic ducts into surrounding tissue [3]
doxorubicin-cobalamin conjugate,can be observed,can be observed,–
CCN(CC)c1ccc(C(=C2C=CC(=[N+](CC)CC)C=C2)c2cc(S(=O)(=O)[O-])ccc2S(=O)(=O)[O-])cc1.[Na+] [Lymphazurine],–,–,tend to flow out of the lymphatic ducts into the surrounding tissue very quickly
CN(C)c1ccc2nc3ccc(=[N+](C)C)cc-3sc2c1 [methylene blue],–,–,tend to flow out of the lymphatic ducts into the surrounding tissue very quickly
